Results from ChEMBL document CHEMBL1201862, “PubChem BioAssay data set” (2004).
Activity calls are given as the source filed them.

Key:
[1] = viability of uninfected HEp-2 cells – cell-based, HTS, cytotoxicity control for RSV inhibitor project, dose response (AID 2410); type: functional; details: human respiratory syncytial virus
[2] = blockers of HIV-1 envelope-mediated cell-cell fusion – cherry-pick, dose response (AID 652057); type: functional, cell-based
[3] = HIV-1 AD8 envelope cell-cell fusion blockers – cherry-pick, dose response (AID 652062); type: functional, cell-based;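 also: luciferase signal from cell-cell fusion driven by HIV-1 clade B AD8 Env; potency is for inhibitors of fusion seen as a drop in luminescence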
[4] = blockers of HIV-1 ZM109 envelope-driven cell-cell fusion – HeLa effector, CEM target cells, luciferase, cherry-pick, dose response (AID 652058); type: functional, cell-based;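 also: luciferase signal from HIV-1 Env mediated cell-cell fusion of effector and target cells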
[5] = off-target signal loss in HeLa-CEM21 co-culture – HeLa F-luc CTL cells, cherry-picked, counter-screen for HIV-1 Env fusion inhibitor project, dose response (AID 652040); type: functional, cell-based;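 also: potency for signal decrease marking cytotoxic or nonspecific inhibition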
[6] = viability loss in HEK293 cells – cell-based, plate reader, cherry-picked samples, cytotoxicity control, dose response (AID 743446); type: functional
[7] = A549 cell cytotoxicity, dose response, cytotoxicity control, plate reader, cherry-pick, antagonist series (AID 743412); type: functional, cell-based
[8] = toxicity toward HepG2 liver cells – cell-based, plate reader, cherry-pick, antagonist series, cytotoxicity control, dose response (AID 743416); type: functional
[9] = viability loss in THP-1 monocytes – THP-1 cells, cytotoxicity control for Vif-APOBEC3G degradation inhibitor project, dose response (AID 1117359); type: functional; details: THP-1
[10] = biological target: T1, Microphthalmia-associated transcription factor (Homo sapiens, UniProt O75030); assay: reducers of TRPM1 reporter luminescence, concentration series – cell-based, SK-MEL-5, cherry-picked, set 3, MITF inhibitor project, dose response (AID 493073); type: functional;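 also: SK-MEL-5 melanoma cells with luciferase driven by the MITF target TRPM1 promoter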
T1 sequence (O75030 whole entry): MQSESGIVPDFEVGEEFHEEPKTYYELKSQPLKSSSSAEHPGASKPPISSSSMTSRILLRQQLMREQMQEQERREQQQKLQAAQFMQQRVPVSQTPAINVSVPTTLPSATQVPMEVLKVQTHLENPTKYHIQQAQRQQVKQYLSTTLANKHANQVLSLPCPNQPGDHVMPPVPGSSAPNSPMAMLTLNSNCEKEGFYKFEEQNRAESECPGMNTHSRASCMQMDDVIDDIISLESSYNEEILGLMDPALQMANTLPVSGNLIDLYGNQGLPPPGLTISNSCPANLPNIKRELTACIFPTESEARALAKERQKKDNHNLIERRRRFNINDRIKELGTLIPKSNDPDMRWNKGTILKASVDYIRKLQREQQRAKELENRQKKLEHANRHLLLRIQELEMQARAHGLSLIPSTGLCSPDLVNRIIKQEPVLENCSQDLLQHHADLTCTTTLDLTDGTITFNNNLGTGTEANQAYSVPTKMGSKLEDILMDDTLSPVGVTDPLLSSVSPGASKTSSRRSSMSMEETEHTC

[11] = NIH3T3 cell viability loss – ATP luminescence, mouse fibroblasts, counter-screen, dose response (AID 2010); type: functional, cell-based;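 also: cells exposed to compound for about 90 hours before reading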
[12] = cells; type: functional
[13] = Trypanosoma cruzi growth suppression in host cells – NIH3T3 host cells, beta-gal luminescence, confirmation (AID 2044); type: functional, cell-based;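 also: intracellular parasites grown in NIH/3T3 mouse fibroblasts as host cells; luminescent beta-galactosidase reporter signal from transgenic T. cruzi replicating inside host cells; inhibitors lower the luminescence signal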
[14] = A cytotoxicity screen of small molecule inhibitors of the PhoP region in Salmonella typhi identified in the primary screen. [Related pubchem assays: 1850, 1864, 1985 ]; type: functional
[15] = cells
[16] = biological target: T2, Long-chain-fatty-acid--AMP ligase FadD28 (Mycobacterium tuberculosis, UniProt P9WQ59); assay: Fluorescence polarization aasay to screen for inhibitors that compete for the binding of FadD28 to a bisubstrate Measured in Biochemical System Using Plate Reader - 2147-01_Inhibitor_Dose_CherryPick_Activity.; type: functional, Mycobacterium tuberculosis H37Rv
T2 sequence (P9WQ59 whole entry): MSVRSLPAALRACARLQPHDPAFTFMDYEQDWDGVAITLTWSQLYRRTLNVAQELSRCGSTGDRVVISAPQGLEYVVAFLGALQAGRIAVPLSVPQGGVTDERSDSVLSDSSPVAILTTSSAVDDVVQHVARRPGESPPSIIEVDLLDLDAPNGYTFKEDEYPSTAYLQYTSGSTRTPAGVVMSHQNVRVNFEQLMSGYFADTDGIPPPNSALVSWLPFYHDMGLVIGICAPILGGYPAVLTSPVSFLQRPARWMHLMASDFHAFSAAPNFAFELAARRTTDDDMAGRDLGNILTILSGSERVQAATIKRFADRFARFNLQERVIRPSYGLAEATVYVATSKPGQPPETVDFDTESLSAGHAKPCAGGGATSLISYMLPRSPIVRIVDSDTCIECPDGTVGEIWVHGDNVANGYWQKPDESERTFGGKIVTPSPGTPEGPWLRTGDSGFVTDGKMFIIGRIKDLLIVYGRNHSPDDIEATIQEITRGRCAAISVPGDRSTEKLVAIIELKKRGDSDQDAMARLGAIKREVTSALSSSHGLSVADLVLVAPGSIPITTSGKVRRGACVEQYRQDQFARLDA

[17] = biological target: T3, Corticotropin-releasing factor receptor 2/Corticotropin-releasing factor-binding protein (Homo sapiens, UniProt P24387+Q13324); assay: Dose Response confirmation of uHTS hits for small molecule antagonists of the CRF-binding protein and CRF-R2 receptor complex.; type: functional; details: read-out: IC50_Mean
T3 sequence (Q13324 whole entry): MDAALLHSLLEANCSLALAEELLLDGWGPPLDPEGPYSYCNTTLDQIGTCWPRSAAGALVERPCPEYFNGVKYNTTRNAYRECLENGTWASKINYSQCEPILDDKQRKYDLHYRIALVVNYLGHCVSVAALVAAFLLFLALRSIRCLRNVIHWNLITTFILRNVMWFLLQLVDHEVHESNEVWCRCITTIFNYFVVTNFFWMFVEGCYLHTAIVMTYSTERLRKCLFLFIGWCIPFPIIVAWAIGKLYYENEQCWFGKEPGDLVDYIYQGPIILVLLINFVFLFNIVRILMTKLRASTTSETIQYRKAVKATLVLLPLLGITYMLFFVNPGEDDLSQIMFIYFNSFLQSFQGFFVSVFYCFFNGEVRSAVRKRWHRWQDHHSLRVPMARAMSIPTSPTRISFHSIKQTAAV
T3 sequence (P24387 whole entry): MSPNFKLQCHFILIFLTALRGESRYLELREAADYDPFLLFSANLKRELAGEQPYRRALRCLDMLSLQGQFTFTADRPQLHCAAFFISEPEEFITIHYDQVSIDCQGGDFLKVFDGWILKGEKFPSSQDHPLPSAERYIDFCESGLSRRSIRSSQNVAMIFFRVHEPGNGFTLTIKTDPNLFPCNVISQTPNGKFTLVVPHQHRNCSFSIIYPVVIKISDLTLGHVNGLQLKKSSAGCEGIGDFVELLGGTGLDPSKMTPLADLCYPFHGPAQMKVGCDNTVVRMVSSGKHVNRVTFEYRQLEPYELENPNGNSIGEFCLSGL

[18] = biological target: T3, Corticotropin-releasing factor receptor 2/Corticotropin-releasing factor-binding protein; assay: activators of CRF receptor 2 with binding protein – uHTS hits, confirmation (AID 602473); type: functional; details: read-out: EC50_Mean
[19] = biological target: T4, Protein Tat (Human immunodeficiency virus type 1 group M subtype B (isolate HXB2)(HIV-1), UniProt P04608); type: functional;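 also: tat binding to TAR RNA read out by fluorescence polarization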
T4 sequence (P04608 whole entry): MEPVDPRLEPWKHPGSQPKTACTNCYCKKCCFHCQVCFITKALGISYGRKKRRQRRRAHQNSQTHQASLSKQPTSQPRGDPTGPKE

[20] = viability loss of HPDE-C7K cells – cell-based, fluorescence, HTS, primary screen (AID 431); type: functional; details: Homo sapiens
[21] = HPDE-C7 pancreatic duct cell viability loss – fluorescence, HTS (AID 430); type: functional, cell-based; details: Homo sapiens

With CC[C@@]12C(=O)N(c3ccc(C)cc3)C(=O)N1[C@H](c1ccc(Br)cc1)[C@@H]1C(=O)N(C(C)(C)C)C(=O)[C@@H]12 the CC50 [1] was > 50 µM (active), the AC50 [2] was 0.301 µM (active) and the AC50 [3] was 1.06 µM (active). For the same compound, the AC50 [4] was < 0.5 µM (active) and the AC50 [5] was 0.559 µM (active).

With CC(C)(C)c1nc2ccc(Cl)cn2c1CC1CCCCC1 the AC50 [6] was > 52 µM (inactive), the AC50 [7] was > 52 µM (inactive) and the AC50 [8] was > 52 µM (inactive).

With CC(OC(=O)CC1CCCC1)C(=O)Nc1ccc(Cl)cn1 (stereo not given) the CC50 [9] was > 40 µM (active).

For Cc1ccc(OCC(=O)N/N=C/c2ccc([N+](=O)[O-])o2)cc1, the AC50 [10] was 8.9 µM (active), the EC50 [11] was > 60 µM (not active) and the IC50 [12] was 3.01 µM (active). For the same compound, the EC50 [13] was < 0.1 µM (active), the EC50 [14] was > 50 µM (active) and the EC50 [15] was 0.078 µM (active).

With O=C1CCCC2=C1C(c1ccc(Cl)cc1)C1C(=O)c3ccccc3C1=N2 (stereo not given) the CC50 [1] was 17 µM (active) and the AC50 [16] was > 100 µM (inactive).

With CCc1ccccc1N=C(S)N(Cc1cccc(C)c1)c1cccnc1 the EC50 [14] was > 50 µM (active).

With CC(C)CC(NC(=O)/C(=C/c1ccco1)NC(=O)c1ccc(Br)o1)C(=O)O (stereo not given) the IC50 [17] was > 47.1 µM (inactive), the EC50 [18] was > 53 µM (inactive) and the IC50 [19] was > 100 µM (active).

With Cc1ccc(-c2nnc(N3CCN(c4ccccn4)CC3)c3ccccc23)cc1 the EC50 [20] was 16.7 µM (active) and the EC50 [21] was 16.5 µM (active).

In the case of COc1ccccc1N1CCN(CC(O)COCCOc2ccc(Br)cc2)CC1 (stereo not given), the CC50 [9] was 29.9 µM (active).

For CCCC1(c2ccccc2)NC(=O)N(CC(=O)Nc2ccccc2C(F)(F)F)C1=O (stereo not given), the EC50 [14] was > 50 µM (active).
